The record followed here is patent publication US7084163B2, “Heterocyclic carboxamides and their use as fungicides” (Bayer Cropscience S.A., priority 2001, dated 2006).

The subject of one assay is Rhynchosporium secalis. Nature of the assay: In vivo test on Rhynchosporium secalis (barley leaf scald), preventive spray. The settings on record: dose of 500 g/ha; barley plants (Express or Barrack variety); contaminated 24 hours after treatment; grading 12/14 days after contamination vs control plants. On the procedure: (§1) An aqueous suspension, at a concentration of 1.5%, of the active material tested is obtained by grinding it finely in a formulation of concentrated suspension type. This aqueous suspension is then diluted in water so as to obtain the desired active material concentration. Barley plants (Express or Barrack variety) in starter cups, sown on a 50/50 peat soil-pozzolana substrate and grown at 12° C., are treated at the 1-leaf stage (10 cm tall) by spraying with the aqueous suspension described above. Plants, used as controls, are treated with an aqueous solution not containing the active material.
After 24 hours, the plants are contaminated by spraying them with an aqueous suspension of Rhynchosporium secalis spores (800,000 spores per mL). The contaminated wheat plants are incubated for 48 hours at about 20° C. and at 100% relative humidity, and then for 12/14 days at 80% relative humidity.
Grading is carried out 12/14 days after the contamination, in comparison with the control plants. Under these conditions, good (at least 50%) protection is observed, at a dose of 500 g/ha, with the following compound described as example: 32.

For assay [1], the system named is Erisyphe graminis f. sp. tritici. The assay is described as follows: In vivo test on Erisyphe graminis f. sp. tritici (powdery mildew of wheat), preventive spray. As to conditions: Triticum aestivum; dose of 500 g/ha; wheat plants (Audace variety); contaminated 24 hours after treatment; grading 7 to 14 days after contamination vs control plants; read-out: good (at least 50%) or total protection. On the procedure:
as §1, with “Wheat” for “Barley”, “(Audace” for “(Express or Barrack”, “on” for “on a”, “soil-pozzulana” for “soil-pozzolana”, “material. After 24 hours, the plants are contaminated by dusting them with Erisyphe graminis f. sp. tritici spores, the dusting being carried out using diseased plants.” for “material.”

Another assay deals with Drechslera teres. Nature of the assay: In vivo test on Drechslera teres (barley net blotch), preventive spray. As to conditions: Pyrenophora teres, 288 h; dose of 500 g/ha; barley plants (Express variety); contaminated 24 hours after treatment; grading 12 days after contamination vs control plants; read-out: good (at least 50%) protection. The protocol: An aqueous suspension, at a concentration of 1.5%, of the active material. tested is obtained by grinding it finely in a formulation of concentrated suspension type. This aqueous suspension is then diluted in water so as to obtain the desired active material concentration. Barley plants (Express variety) in starter cups, sown on a 50/50 peat soil-pozzolana substrate and grown at 12° C., are treated at the 1-leaf stage (10 cm tall) by spraying with the aqueous suspension described above. Plants, used as controls, are treated with an aqueous solution not containing the active material.
After 24 hours, the plants are contaminated by spraying them with an aqueous suspension of Dreschslera teres spores (12,000 spores per mL). The spores are collected from a 12-day-old culture. The contaminated wheat plants are incubated for 24 hours at about 20° C. and at 100% relative humidity, and then for 12 days at 80% relative humidity.
Grading is carried out 12 days after the contamination, in comparison with the control plants. Under these conditions, good (at least 50%) protection is observed, at a dose of 500 g/ha, with the compounds described as example: 9, 13, 14, 15, 18, 20, 21, 22, 24, 26, 27, 30, 31, 32, 33, 34, 35, 36, 37, 41, 43, 45, 47, 49, 62, 69, 70, 72.

A further assay concerns Septoria tritici. The assay is described as follows: In vivo test on Septoria tritici (leaf spot of wheat), preventive spray. The settings on record: Zymoseptoria tritici; dose of 500 g/ha; wheat plants (Scipion variety); contaminated 24 hours after treatment; grading 15 to 20 days after contamination vs control plants; read-out: good (at least 50%) protection. The protocol:
An aqueous suspension, at a concentration of 1.5%, of the active material tested is obtained by grinding it finely in a formulation of concentrated suspension type. This aqueous suspension is then diluted in water so as to obtain the desired active material concentration. Wheat plants (Scipion variety) in starter cups, sown on a 50/50 peat soil-pozzolana substrate and grown at 12° C., are treated at the 1-leaf stage (10 cm tall) by spraying with the aqueous suspension described above. Plants, used as controls, are treated with an aqueous solution not containing the active material.
After 24 hours, the plants are contaminated by spraying them with an aqueous suspension of Septoria tritici spores (500,000 spores per mL). The spores are collected from a 15-day-old culture and are suspended in a nutrient solution composed of: • 1.5 g/L of gelatine • 0.5 g/L of sodium oleate • 24 g/L of PDB
The contaminated wheat plants are incubated for 72 hours at about 20° C. and at 100% relative humidity, and then for 15 days at 80% relative humidity.

A value given as a limit tells only on which side of the number the result lay.

As for `Nc1noc(C(=O)Nc2ccc(Oc3ccc(C(F)(F)F)cc3)cc2)c1O` [compound 32, 3-Amino4-hydroxy-N-para-[4-(trifluoromethyl)phenoxy]phenylisoxazole-5-carboxamide], the “good (at least 50%) protection” value in the assay with Rhynchosporium secalis was “at least 50%”. The pest or weed control at 500 g/ha (in assay [1]; in the assay on Drechslera teres; in the assay on Septoria tritici) was ≥ 50% in each case.
